One assay relates to Kuramochi cells. Nature of the assay: BrdU cell proliferation assay (colorimetric ELISA), Kuramochi cells. The note with it: class symbols A-D. It counts as cell-based. The procedure, abridged:
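Kuramochi cells (2,000/well, with Kuramochi RB^KO cells as a specificity control) were treated with a 4-point, 3-fold dilution series made from 10 mM compound stocks and left for 4 days at 37 °C. Proliferation was measured by 1 h BrdU labelling, then anti-BrdU peroxidase ELISA read at 450 nm. Signals were background-subtracted and normalized to DMSO wells.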

Another assay concerns the target CDK2/Cyclin E1(14-475) (Homo sapiens, UniProt P24941). Kind of assay: Caliper LabChip EZ Reader mobility shift assay, inhibition of CDK2/Cyclin E1 activity. It counts as biochemical. The note with it: class symbols A-D. In a few lines: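 CDK2/Cyclin E1(14-475) pre-incubated 30 min with compound and ATP, then reaction started with 5-FAM-QSPKKG-CONH2; final 2.5 nM enzyme, 100 μM ATP, 1.5 μM peptide, HEPES pH 7.5. Stopped with EDTA after 100 min; substrate/product conversion by capillary electrophoresis mobility shift, IC50 from four-parameter fit.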

As usually defined, the IC50 is the midpoint of a concentration-inhibition curve. Take `CNC(=O)[C@H](CCCC1CCCCCC1)NC(=O)C1CN(C(=O)Cc2c[nH]c3cc(Cl)ccc23)CC2CN(C(=O)c3ccc(OC(C)C)c(OC)c3)CC21` (some centres unmarked) [I-140]: the concentration for half-maximal inhibition (IC50) in the assay with Kuramochi cells was over 10 µM; at CDK2/Cyclin E1(14-475), 0.5 to 5 µM.
Consider `CNC(=O)[C@@H](CCCC1CCCCCC1)NC(=O)C1CN(C(=O)Cc2c[nH]c3cc(Cl)ccc23)CC2CN(C(=O)c3ccc(OC(C)C)c(OC)c3)CC21` (some centres unmarked) [I-141], for which the half-inhibitory concentration (IC50) is 5 to 10 µM in the assay with Kuramochi cells and over 10 µM at CDK2/Cyclin E1(14-475).
The like results for `CNC(=O)[C@@H](CCCC1CCC(O)CC1)NC(=O)C1CN(C(=O)Cc2c[nH]c3cc(Cl)ccc23)CC2CN(C(=O)c3ccc(OC(C)C)c(OC)c3)CC21` (some centres unmarked) [I-142] were, in that order, over 10 µM and over 10 µM.
The like results for `CNC(=O)[C@H](CCCc1ccc2[nH]nnc2c1)NC(=O)C1CN(C(=O)Cc2c[nH]c3cc(Cl)ccc23)CC2CN(C(=O)c3ccc(OC(C)C)c(OC)c3)CC21` (some centres unmarked) [I-143] were, in that order, over 10 µM and over 10 µM.
The like results for `CNC(=O)[C@H](CCCc1ccc(F)cc1)NC(=O)C1CN(C(=O)Cc2c[nH]c3cc(Cl)ccc23)CC2CN(C(=O)c3ccc(OC(C)C)c(OC)c3)CC21` (some centres unmarked) [I-144] were, in that order, over 10 µM and 0.5 to 5 µM.
On to `COc1cc(C(=O)N2CC3CN(C(=O)Cc4c[nH]c5cc(Cl)ccc45)CC(C(=O)NC(CCCc4ccccc4)c4ncco4)C3C2)ccc1OC(C)C` (centres unmarked) [I-149], for which the IC50 in the assay with Kuramochi cells is over 10 µM; on CDK2/Cyclin E1(14-475), 0.5 to 5 µM.
The like results for `COc1cc(C(=O)N2CC3CN(C(=O)Cc4c[nH]c5cc(Cl)ccc45)CC(C(=O)NC(CCCc4ccccc4)c4ccccn4)C3C2)ccc1OC(C)C` (centres unmarked) [I-150] were, in that order, 5 to 10 µM and 0.5 to 5 µM.
The like results for `COc1cc(C(=O)N2CC3CN(C(=O)Cc4c[nH]c5cc(Cl)ccc45)CC(C(=O)NC(CCCc4ccccc4)c4ncccn4)C3C2)ccc1OC(C)C` (centres unmarked) [I-151] were, in that order, 0.5 to 5 µM and at most 0.5 µM.
The like results for `CNC(=O)[C@H](CCCc1ccccc1)NC(=O)C1CN(C(=O)Cc2ccccc2)CC2CN(C(=O)c3ccc(OC(C)C)c(OC)c3)CC21` (stereo partly drawn) [I-154, 2-(4-isopropoxy-3-methoxybenzoyl)-N—((S)-1-(methylamino)-1-oxo-5-phenylpentan-2-yl)-5-(2-phenylacetyl)octahydro-1H-pyrrolo[3,4-c]pyridine-7-carboxamide] were, in that order, over 10 µM and over 10 µM.
Regarding `CNC(=O)[C@H](CCCc1ccccc1)NC(=O)C1CN(C(=O)Cc2ccccn2)CC2CN(C(=O)c3ccc(OC(C)C)c(OC)c3)CC21` (some centres unmarked) [I-155], the IC50 in the assay with Kuramochi cells and on CDK2/Cyclin E1(14-475) was over 10 µM in each case.
In the case of `CNC(=O)[C@H](CCCc1ccccc1)NC(=O)C1CN(C(=O)Cn2cnc3cc(Cl)ccc32)CC2CN(C(=O)c3ccc(OC(C)C)c(OC)c3)CC21` (some centres unmarked) [I-156], the IC50 was over 10 µM in the assay with Kuramochi cells and 0.5 to 5 µM at CDK2/Cyclin E1(14-475).
Turning to `CNC(=O)[C@H](CCCc1ccccc1)NC(=O)C1CN(C(=O)CCc2c[nH]c3ccccc23)CC2CN(C(=O)c3ccc(OC(C)C)c(OC)c3)CC21` (some centres unmarked) [I-157], the half-inhibitory concentration (IC50) in the assay on Kuramochi cells and at CDK2/Cyclin E1(14-475) was over 10 µM each time.
In the case of `CNC(=O)[C@H](CCCc1ccccc1)NC(=O)C1CN(C(=O)c2ccc3ncccc3c2)CC2CN(C(=O)c3ccc(OC(C)C)c(OC)c3)CC21` (some centres unmarked) [I-158], the IC50 in the assay on Kuramochi cells and at CDK2/Cyclin E1(14-475) was over 10 µM each time.
`CNC(=O)[C@H](CCCc1ccccc1)NC(=O)C1CN(C(=O)c2cn(C)c3ccccc23)CC2CN(C(=O)c3ccc(OC(C)C)c(OC)c3)CC21` (some centres unmarked) [I-159]: the concentration for half-maximal inhibition (IC50) in the assay on Kuramochi cells and at CDK2/Cyclin E1(14-475) was over 10 µM throughout.
`CNC(=O)[C@H](CCCc1ccccc1)NC(=O)C1CN(C(=O)c2cc3ccccc3cn2)CC2CN(C(=O)c3ccc(OC(C)C)c(OC)c3)CC21` (some centres unmarked) [I-160]: the half-inhibitory concentration (IC50) in the assay on Kuramochi cells and on CDK2/Cyclin E1(14-475) was over 10 µM throughout.
Consider `CNC(=O)[C@H](CCCc1ccccc1)NC(=O)C1CN(C(=O)Cn2ccc3ccccc32)CC2CN(C(=O)c3ccc(OC(C)C)c(OC)c3)CC21` (some centres unmarked) [I-161], for which the IC50 in the assay with Kuramochi cells and on CDK2/Cyclin E1(14-475) was over 10 µM each time.

The values are drawn from patent publication US12053459B2, “CDK2 inhibitors and methods of using the same” (Cedilla Therapeutics, Inc., priority 2021, dated 2024).
